Measurements from US7875601B2, “Cancer treatment with epothilones” (Novartis AG, priority 1998, dated 2011).
Several values for one entry are separate records, joined by “and”; a condition that tells them apart may be missing. Identical values can stand only once. Entries after “also recorded” stand apart in the source; their conditions may differ. Like-named read-outs stand apart in the source and are kept apart here. Marks after values point to notes of the source that are not given here.

Columns and labels:
[1] = Determination of the single i.v. dose MTD in female BALB/c nude mice; assay type: in vivo
Experimental: The Maximal Tolerated Dose (MTD) is determined according to standard procedures; preferably, in warm-blooded animals the MTD in case of oral or intravenous administration is determined as the Dose of a single administration where no death occurs and a loss of body weight of less than 40, preferably less than 25, percent (%) is found in the treated warm-blooded animal individual (this term here mainly referring to an animal; for humans see below).
For the MTD determination, female BALB/c nude mice or BALB/c mice (obtained from Novartis Animal Farm, Sisseln, Switzerland) are treated once intravenously with epothilone B (n=3 per dose group). The dosage is increased (2, 4, 6, 8, 10 and 12 mg/kg) and the mice are observed for the presentation of overt toxic effects for 10 days after drug treatment.

[2] = system: human HCT-15 colon carcinoma; experiment: Antitumor effect against s.c. transplanted HCT-15 tumors; assay type: in vivo, female BALB/c nude mice
Description: Human colorectal adenocarcinoma cell line HCT-15 (ATCC CCL 225) is from the American Type Culture Collection (Rockville, Md., USA), and the cells are cultivated in vitro as recommended by the supplier. HCT-15 is an epithelial-like cell line. (Cancer Res. 39: 1020-25 [1979]) that is multi-drug resistant by virtue of over-expression of P-glycoprotein (P-gp, gp170, MDR-1;Anticancer Res. 11: 1309-12 [1991]; J. Biol. Chem. 264: 18031-40 [1989]; Int. J. Cancer 1991; 49: 696-703 [1991]) and glutathione-dependent resistance mechanisms (Int. J. Cancer 1991; 49: 688-95 [1991]).
(§1) Female or male BALB/c nu/nu (nude) mice are kept under sterile conditions (10 to 12 mice per Type III cage) with free access to food and water. Mice weigh between 20 and 25 grams at the time of tumor implantation. Tumors are established by subcutaneous injection of cells (minimum 2×10^6 cells in 100 μl PBS or medium) in carrier mice (4-8 mice per cell line). The resulting tumors are serially passaged for a minimum of three consecutive transplantations prior to start of treatment. Tumor fragments (approx. 25 mg) are implanted s.c. into the left flank of animals with a 13-gauge trocar needle while the mice are exposed to Forene (Abbott, Switzerland) anesthesia.
(§2) Tumor growth and body weights are monitored once or twice weekly. All treatments are administered intravenously (i.v.) and are initiated when a mean tumor volume of approximately 100 to 250 mm^3 is attained, depending upon the tumor type. Tumor volumes are determined using the formula […] (see Cancer Chemother. Pharmacol. 24:148-154, [1989]). Treatments with epothilone B vary the dose and the frequency of administration. Comparator agents are administered according to previously determined optimal treatment regimens. In addition to presenting changes in tumor volumes over the course of treatment, antitumor activity is expressed as T/C % (mean increase of tumor volumes of treated animals divided by the mean increase of tumor volumes of control animals multiplied by 100). Tumor. regression (%) represents the smallest mean tumor volume compared to the mean tumor volume at the start of treatment, according to the formula Regression (%)=(1−Vend/Vstart)×100(Vend=final mean tumor volume, Vstart=mean tumor volume at the start of treatment. Any animals in which the tumor has reached a size exceeding approximately 1.5 to 2.5 cm^3 are sacrificed. Details can be found below.
Tumor volumes are used as the primary indicator of activity of antitumor agents used alone or in combination, and changes in body weights are measured as an indicator of treatment tolerability.

[3] = system: human KB-8511 epidermoid carcinoma; assay type: in vivo, female BALB/c nude mice; conditions: for % Body Weight Change / D Body Weight / D Tumor Volume (mm^3): mean ± SEM
Experimental: The human epidermal (mouth) carcinoma cell line KB-8511 (a P-gp over-expressing cell line derived from the epidermoid (mouth) KB-31 carcinoma cell line) is obtained from Dr. R. M. Baker, Roswell Park Memorial Institute (Buffalo, N.Y., USA) (for description see Akiyama et al., Somat. Cell. Mol. Genetics 11, 117-126 (1985) and Fojo A., et al., Cancer Res. 45, 3002-3007 (1985)) and is cultured as previously described (Meyer, T., et al., Int. J. Cancer 43 851-856 (1989)).
as §1, §2

[4] = system: A549 non small cell lung tumors; experiment: Antitumor activity on A549 tumors, regimen comparison (Example 7); conditions: for % Regression / % T/C / Delta % Body Weight / Delta Mean Tumor Vol. (mm^3): day 37
Experimental: 3-10 million cells are implanted s.c. into the right axillary (lateral) region of outbred athymic (nu/nu) mice, and are allowed to grow until a tumor volume of approximately 100 mm^3 is established. […] Positive controls are carried out with clinical formulations of TAXOL® diluted 6 fold with D5W and administered i.v. 3×/week.
Antitumor activity is expressed as % T/C (comparing Δ tumor volumes for treatment group to vehicle control group) at the end of the experiment. Regressions are calculated using the formula: −(T/T0−1)×100%, where T is the tumor volume for the treatment group at the end of the experiment, and T0 is the tumor volume at the beginning of the experiment. Statistical significance is evaluated using a one-tailed Student's t-test.

[5] = 4 mg/kg, i.v. once on day 14, mean ± SEM

Q: What does the source list for `C/C(=C\c1csc(C)n1)[C@@H]1C[C@@H]2O[C@]2(C)CCC[C@H](C)[C@H](O)[C@@H](C)C(=O)C(C)(C)[C@@H](O)CC(=O)O1` [epothilone B]?
A: Body Weight % Change ([1]; 2 mg/kg single i.v. bolus): 4.2 ± 2.1%; Body Weight Δ (mean g ± SD) ([1]; 2 mg/kg single i.v. bolus): 1.0 ± 0.5 g; Mortalities ([1]; 2 mg/kg single i.v. bolus): 0/3; Body Weight % Change ([1]; 4 mg/kg single i.v. bolus): −1.7 ± 2.9%; Body Weight Δ (mean g ± SD) ([1]; 4 mg/kg single i.v. bolus): -0.4 ± 0.6 g; Mortalities ([1]; 4 mg/kg single i.v. bolus): 0/3; Body Weight % Change ([1]; 6 mg/kg single i.v. bolus): −4.2 ± 2.1%; Body Weight Δ (mean g ± SD) ([1]; 6 mg/kg single i.v. bolus): -1.0 ± 0.5 g; Mortalities ([1]; 6 mg/kg single i.v. bolus): 0/3; Body Weight % Change ([1]; 8 mg/kg single i.v. bolus): −16.8 ± 12.2%; Body Weight Δ (mean g ± SD) ([1]; 8 mg/kg single i.v. bolus): -3.8 ± 2.7 g; Mortalities ([1]; 8 mg/kg single i.v. bolus): 1/3; Body Weight % Change ([1]; 10 mg/kg single i.v. bolus): −23.7 ± 13.6%; Body Weight Δ (mean g ± SD) ([1]; 10 mg/kg single i.v. bolus): -5.6 ± 3.3 g; Mortalities ([1]; 10 mg/kg single i.v. bolus): 1/3; Body Weight % Change ([1]; 12 mg/kg single i.v. bolus): −22.9 ± 3.1%; Body Weight Δ (mean g ± SD) ([1]; 12 mg/kg single i.v. bolus): -5.1 ± 0.6 g; Mortalities ([1]; 12 mg/kg single i.v. bolus): 3/3; MTD ([1]; single dose i.v., nude mice): 6 mg/kg; Regression ([2]; 4 mg/kg, i.v. once on day 14): −61%; Survival (No. alive/total) ([2]; 4 mg/kg, i.v. once on day 14): 8/8; T/C ([2]; 4 mg/kg, i.v. once on day 14): tumor regressions; also recorded: Regression; % Body Weight Change [2, 5]: 2 ± 2%; D Body Weight [2, 5]: 0.4 ± 0.3 g; D Tumor Volume (mm^3) [2, 5]: −97 ± 25 mm^3; mortalities due to treatment ([2]; single 4 mg/kg dose): No mortalities due to treatment; Regression ([3]; 1 mg/kg, i.v. once per week): none; Survival (No. alive/total) ([3]; 1 mg/kg, i.v. once per week): 8/8; T/C ([3]; 1 mg/kg, i.v. once per week, final): 81%; % Body Weight Change ([3]; 1 mg/kg, i.v. once per week): 12 ± 1%; D Body Weight ([3]; 1 mg/kg, i.v. once per week): 2.6 ± 0.3 g; D Tumor Volume (mm^3) ([3]; 1 mg/kg, i.v. once per week): 1620 ± 290 mm^3; Survival (No. alive/total) ([3]; 2 mg/kg, i.v. once per week): 8/8; T/C ([3]; 2 mg/kg, i.v. once per week, final): 14%; % Body Weight Change ([3]; 2 mg/kg, i.v. once per week): 5 ± 2%; D Body Weight ([3]; 2 mg/kg, i.v. once per week): 1.1 ± 0.4 g; D Tumor Volume (mm^3) ([3]; 2 mg/kg, i.v. once per week): 289 ± 204 mm^3; mice with undetectable tumors at the end of the experiment ([3]; 2 mg/kg/week): ⅛; Survival (No. alive/total) ([3]; 4 mg/kg, i.v. once on day 13): 8/8; T/C ([3]; 4 mg/kg, i.v. once on day 13, final): 24%; % Body Weight Change ([3]; 4 mg/kg, i.v. once on day 13): 3 ± 2%; D Body Weight ([3]; 4 mg/kg, i.v. once on day 13): 0.6 ± 0.6 g; D Tumor Volume (mm^3) ([3]; 4 mg/kg, i.v. once on day 13): 484 ± 103 mm^3; Regression ([3]; 4 mg/kg, i.v. once on day 13, transient, day 25 post transplantation): −51%; Survival (No. alive/total) ([3]; 4 mg/kg, i.v. once per week): 8/8; T/C ([3]; 4 mg/kg, i.v. once per week (days 13, 21 and 27)): Regression; % Body Weight Change ([3]; 4 mg/kg, i.v. once per week): −5±7% and −5 ± 3%; D Body Weight ([3]; 4 mg/kg, i.v. once per week): -1.1 ± 0.4 g; D Tumor Volume (mm^3) ([3]; 4 mg/kg, i.v. once per week): −107 ± 14 mm^3; mice with undetectable tumors at the end of the experiment ([3]; 4 mg/kg/week): ⅝; Dead/Total ([4]; 0.5 mg/kg i.v. 5x/week): 0/8; % Regression ([4]; 0.5 mg/kg i.v. 5x/week): none; % T/C ([4]; 0.5 mg/kg i.v. 5x/week): 41** %; Delta % Body Weight ([4]; 0.5 mg/kg i.v. 5x/week): −23.1%; Delta Mean Tumor Vol. (mm^3) ([4]; 0.5 mg/kg i.v. 5x/week): 178 mm^3; % T/C ([4]; 0.5 mg/kg i.v. 5x/week, listed as Epothilone B): 41%; body weight loss ([4]; 0.5 mg/kg, 5×/week): 23%; Dead/Total ([4]; 1.5 mg/kg i.v. 3x/week): 8/8; Dead/Total ([4]; 1.5 mg/kg i.v. 3x/week, listed as Epothilone B): all animals have to be euthanatized; body weight loss ([4]; 4 mg/kg administered 1×/week): 13%; Dead/Total ([4]; 4 mg/kg i.v. 1x/week): 0/8; % Regression ([4]; 4 mg/kg i.v. 1x/week): none; % T/C ([4]; 4 mg/kg i.v. 1x/week): 7** %; Delta % Body Weight ([4]; 4 mg/kg i.v. 1x/week): −13.2%; Delta Mean Tumor Vol. (mm^3) ([4]; 4 mg/kg i.v. 1x/week): 32 mm^3; % T/C ([4]; 4 mg/kg i.v. 1x/week, listed as Epothilone B): 7%; Dead/Total ([4]; 6 mg/kg i.v. once (day 16)): 0/8; % Regression ([4]; 6 mg/kg i.v. once (day 16)): none; % T/C ([4]; 6 mg/kg i.v. once (day 16)): 41** %; Delta % Body Weight ([4]; 6 mg/kg i.v. once (day 16)): +8.5%; Delta Mean Tumor Vol. (mm^3) ([4]; 6 mg/kg i.v. once (day 16)): 178 mm^3; % T/C ([4]; 6 mg/kg i.v. once (day 16), listed as Epothilone B): 41%
